Consider two molecules from ChEMBL document CHEMBL3124828, “A 2,6,9-hetero-trisubstituted purine inhibitor exhibits potent biological effects against multiple myeloma cells” (Bioorg Med Chem, 2013).

Each structure is given as a SMILES string. Calls of active or inactive are those of the source. The rule behind the calls is not given here.

In general, IC50 refers to the concentration that inhibits the measured activity by half. High values mean weaker potency, low ones greater potency. The term inhibition denotes the relative decrease from the control value, in per cent. Usually EC50 stands for the concentration giving half of the maximal effect. High values mean a less potent agent, low ones a more potent agent.

The nature of experiment [1]: Induction of apoptosis in human XG6 cells assessed as early apoptotic cells at 12.5 uM after 48 hrs by annexinV/propidium iodide staining (reference value: 8.62%). In kind it is functional.
The target in experiment [2] is Leukocyte tyrosine kinase receptor (Homo sapiens, UniProt P29376). The experiment can be described thus: Inhibition of TYK1 (unknown origin) after 20 mins.
The test system of experiment [3] is SK-MM-2. The experiment can be described thus: Cytotoxicity against human SKMM-2 cells assessed as growth inhibition after 48 hrs by MTT assay. The experiment is classed as functional, cell-based. A general note: Tetrazolium dyes change colour on reduction, which living cells bring about.
The target in experiment [4] is Signal transducer and activator of transcription 3 (Homo sapiens) (UniProt P40763). Put plainly: Inhibition of STAT3 phosphorylation in IL-6 stimulated human OPM2 cells at > IC50 after 30 mins by flow cytometry. The experiment is classed as cell-based. Particulars: OPM-2. On the technique in general: A flow cytometer gives signals particle by particle.
In experiment [5] the test system is JJN-3. The experiment can be described thus: Induction of apoptosis in human JJN-3 cells assessed as early apoptotic cells at 12.5 uM after 48 hrs by annexinV/propidium iodide staining (reference value: 13.3%). In kind it is functional.
Experiment [6] addresses AP2-associated protein kinase 1 (Homo sapiens) (UniProt Q2M2I8). Put plainly: Inhibition of AAK1 (unknown origin) at 2.5 uM after 20 mins.
Experiment [7] deals with JJN-3. The experiment can be described thus: Cytotoxicity against human JJN-3 cells assessed as growth inhibition after 48 hrs by MTT assay. The experiment is classed as functional, cell-based.
Experiment [8] relates to JJN-3. Put plainly: Induction of apoptosis in human JJN-3 cells assessed as viable cells at 12.5 uM after 48 hrs by annexinV/propidium iodide staining (reference value: 75.9%). Particulars: JJN-3, 48 h, read-out: Activity. In kind it is functional.
Experiment [9] concerns JJN-3. The experiment can be described thus: Induction of apoptosis in human JJN-3 cells assessed as late apoptotic cells at 12.5 uM after 48 hrs by annexinV/propidium iodide staining (reference value: 9.59%). The experiment is classed as functional.
Experiment [10] has as its system JJN-3. Put plainly: Induction of apoptosis in human JJN-3 cells assessed as viable cells at 7.5 uM after 48 hrs by annexinV/propidium iodide staining (reference value: 75.9%). In kind it is functional. Particulars: JJN-3, 48 h, read-out: Activity.
Experiment [11] relates to MDA-MB-468. Put plainly: Cytotoxicity against human MDA-MB-468 cells after 72 hrs by MTS assay. The experiment is classed as functional, cell-based. Particulars: MDA-MB-468, 72 h.
Experiment [12] has as its system XG6. Put plainly: Cytotoxicity against human XG6 cells assessed as growth inhibition at 10 uM after 48 hrs by MTT assay. In kind it is functional, cell-based.
A short description of experiment [13]: Induction of apoptosis in human XG6 cells assessed as late apoptotic cells at 12.5 uM after 48 hrs by annexinV/propidium iodide staining (reference value: 7.78%). The experiment is classed as functional.
Experiment [14] can be described thus: Induction of apoptosis in human XG6 cells assessed as viable cells at 12.5 uM after 48 hrs by annexinV/propidium iodide staining (reference value: 83.3%). The experiment is classed as functional. The following applies: XG6, 48 h, read-out: Activity.
In experiment [15] the target is Signal transducer and activator of transcription 3 (Homo sapiens) (UniProt P40763). The experiment can be described thus: Displacement of FAM-GpYLPQTV-NH2 from full-length Stat3 SH2 domain (unknown origin) up to 100 uM by fluorescence polarization.
Experiment [16] has as its target T1, Tyrosine-protein kinase JAK3 (Homo sapiens, UniProt P52333).
T1 sequence (P52333 whole entry): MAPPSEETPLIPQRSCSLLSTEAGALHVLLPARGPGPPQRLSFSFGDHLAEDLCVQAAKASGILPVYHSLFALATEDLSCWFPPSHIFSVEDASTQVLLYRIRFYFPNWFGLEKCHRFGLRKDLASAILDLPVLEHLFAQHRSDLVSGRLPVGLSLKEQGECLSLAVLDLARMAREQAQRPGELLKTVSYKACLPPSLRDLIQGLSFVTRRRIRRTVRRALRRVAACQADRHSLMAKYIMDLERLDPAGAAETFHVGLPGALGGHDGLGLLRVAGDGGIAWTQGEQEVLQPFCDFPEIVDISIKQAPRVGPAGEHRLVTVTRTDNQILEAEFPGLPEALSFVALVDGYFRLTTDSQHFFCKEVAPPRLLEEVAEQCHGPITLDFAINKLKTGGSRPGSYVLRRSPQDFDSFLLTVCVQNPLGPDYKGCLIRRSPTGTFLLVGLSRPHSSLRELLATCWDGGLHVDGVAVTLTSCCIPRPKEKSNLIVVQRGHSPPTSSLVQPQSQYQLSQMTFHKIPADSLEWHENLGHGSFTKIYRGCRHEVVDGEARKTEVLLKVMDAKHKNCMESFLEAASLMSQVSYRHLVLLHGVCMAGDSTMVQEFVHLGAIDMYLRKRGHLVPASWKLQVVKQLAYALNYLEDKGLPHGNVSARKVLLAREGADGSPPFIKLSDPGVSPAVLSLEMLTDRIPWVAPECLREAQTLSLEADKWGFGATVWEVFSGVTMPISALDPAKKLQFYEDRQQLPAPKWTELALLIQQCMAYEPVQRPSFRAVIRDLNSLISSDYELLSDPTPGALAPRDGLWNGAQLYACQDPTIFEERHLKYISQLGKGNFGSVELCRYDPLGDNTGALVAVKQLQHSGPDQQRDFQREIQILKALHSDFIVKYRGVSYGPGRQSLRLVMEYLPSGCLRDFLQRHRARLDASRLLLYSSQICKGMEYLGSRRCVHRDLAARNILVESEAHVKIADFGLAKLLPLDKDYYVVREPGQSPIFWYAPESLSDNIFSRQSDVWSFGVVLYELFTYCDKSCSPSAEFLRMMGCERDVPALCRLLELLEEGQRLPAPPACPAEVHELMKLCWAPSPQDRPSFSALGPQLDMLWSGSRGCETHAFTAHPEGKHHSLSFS
Put plainly: Inhibition of JAK3 (unknown origin) after 20 mins.

Experiment [17] concerns XG6. The experiment can be described thus: Induction of apoptosis in human XG6 cells assessed as late apoptotic cells at 15 uM after 48 hrs by annexinV/propidium iodide staining. In kind it is functional, cell-based.
In experiment [18] the target is T2, Tyrosine-protein kinase JAK3 (Homo sapiens) (UniProt P52333).
T2 sequence (whole entry): T1 sequence (P52333 whole entry)
Put plainly: Inhibition of JAK3 (unknown origin) at 50 uM after 20 mins.

Experiment [19] concerns Tyrosine-protein kinase ABL1 (Homo sapiens), P00519 [F317L]. Put plainly: Inhibition of ABL1 F317L mutant (unknown origin) at 2.5 uM after 20 mins.
The target in experiment [20] is Signal transducer and activator of transcription 3 (Homo sapiens) (UniProt P40763). The experiment can be described thus: Displacement of FAM-GpYLPQTV-NH2 from full-length Stat3 SH2 domain (unknown origin) up to 400 uM by fluorescence polarization. On the technique in general: Fluorescence polarisation rises when a labelled molecule tumbles more slowly, as on binding a larger partner.

Experiment [21] addresses T3, Tyrosine-protein kinase JAK2 (Homo sapiens, UniProt O60674). Put plainly: Inhibition of JAK2 (unknown origin) at 50 uM after 20 mins.
A short description of experiment [22]: Induction of apoptosis in human XG6 cells assessed as late apoptotic cells at 7.5 uM after 48 hrs by annexinV/propidium iodide staining (reference value: 7.78%). The experiment is classed as functional.
Experiment [23] relates to JJN-3. Put plainly: Induction of apoptosis in human JJN-3 cells assessed as early apoptotic cells at 7.5 uM after 48 hrs by annexinV/propidium iodide staining (reference value: 13.3%). In kind it is functional.
The target of experiment [24] is Tyrosine-protein kinase JAK1 (Homo sapiens) (UniProt P23458). Put plainly: Inhibition of JAK1 (unknown origin) at 100 uM after 20 mins.
Experiment [25] deals with OCI-AML2. Put plainly: Cytotoxicity against human OCI-AML2 cells after 72 hrs by MTS assay. The experiment is classed as functional, cell-based.
Experiment [26] relates to DU-145. Put plainly: Cytotoxicity against human DU145 cells after 72 hrs by MTS assay. In kind it is functional, cell-based.
The target of experiment [27] is T3, Tyrosine-protein kinase JAK2. Put plainly: Inhibition of JAK2 (unknown origin) after 20 mins.
The subject of experiment [28] is JJN-3. The experiment can be described thus: Induction of apoptosis in human JJN-3 cells assessed as late apoptotic cells at 7.5 uM after 48 hrs by annexinV/propidium iodide staining (reference value: 9.59%). The experiment is classed as functional.
The nature of experiment [29]: Induction of apoptosis in human XG6 cells assessed as viable cells at 7.5 uM after 48 hrs by annexinV/propidium iodide staining (reference value: 83.3%). In kind it is functional. Particulars: XG6, 48 h, read-out: Activity.
Experiment [30] in a line: Induction of apoptosis in human XG6 cells assessed as early apoptotic cells at 7.5 uM after 48 hrs by annexinV/propidium iodide staining (reference value: 8.62%). In kind it is functional.
The subject of experiment [31] is JJN-3. Put plainly: Induction of apoptosis in human JJN-3 cells assessed as viable cells at 15 uM after 48 hrs by annexinV/propidium iodide staining (reference value: 75.9%). In kind it is functional. Particulars: JJN-3, 48 h, read-out: Activity.
Experiment [32] in a line: Induction of apoptosis in human XG6 cells assessed as early apoptotic cells at 15 uM after 48 hrs by annexinV/propidium iodide staining (reference value: 8.62%). In kind it is functional.
The test system of experiment [33] is JJN-3. Put plainly: Induction of apoptosis in human JJN-3 cells assessed as early apoptotic cells at 15 uM after 48 hrs by annexinV/propidium iodide staining (reference value: 13.3%). In kind it is functional.
Experiment [34] in a line: Induction of apoptosis in human XG6 cells assessed as viable cells at 15 uM after 48 hrs by annexinV/propidium iodide staining (reference value: 83.3%). Particulars: XG6, 48 h, read-out: Activity. The experiment is classed as functional.
Experiment [35] relates to JJN-3. The experiment can be described thus: Induction of apoptosis in human JJN-3 cells assessed as late apoptotic cells at 15 uM after 48 hrs by annexinV/propidium iodide staining (reference value: 9.59%). In kind it is functional.
Experiment [36] can be described thus: Induction of apoptosis in human XG6 cells assessed as late apoptotic cells at 15 uM after 48 hrs by annexinV/propidium iodide staining (reference value: 7.78%). In kind it is functional.

Signal transducer and activator of transcription 3 (Homo sapiens), sequence (P40763 whole entry, the tested form may be a part): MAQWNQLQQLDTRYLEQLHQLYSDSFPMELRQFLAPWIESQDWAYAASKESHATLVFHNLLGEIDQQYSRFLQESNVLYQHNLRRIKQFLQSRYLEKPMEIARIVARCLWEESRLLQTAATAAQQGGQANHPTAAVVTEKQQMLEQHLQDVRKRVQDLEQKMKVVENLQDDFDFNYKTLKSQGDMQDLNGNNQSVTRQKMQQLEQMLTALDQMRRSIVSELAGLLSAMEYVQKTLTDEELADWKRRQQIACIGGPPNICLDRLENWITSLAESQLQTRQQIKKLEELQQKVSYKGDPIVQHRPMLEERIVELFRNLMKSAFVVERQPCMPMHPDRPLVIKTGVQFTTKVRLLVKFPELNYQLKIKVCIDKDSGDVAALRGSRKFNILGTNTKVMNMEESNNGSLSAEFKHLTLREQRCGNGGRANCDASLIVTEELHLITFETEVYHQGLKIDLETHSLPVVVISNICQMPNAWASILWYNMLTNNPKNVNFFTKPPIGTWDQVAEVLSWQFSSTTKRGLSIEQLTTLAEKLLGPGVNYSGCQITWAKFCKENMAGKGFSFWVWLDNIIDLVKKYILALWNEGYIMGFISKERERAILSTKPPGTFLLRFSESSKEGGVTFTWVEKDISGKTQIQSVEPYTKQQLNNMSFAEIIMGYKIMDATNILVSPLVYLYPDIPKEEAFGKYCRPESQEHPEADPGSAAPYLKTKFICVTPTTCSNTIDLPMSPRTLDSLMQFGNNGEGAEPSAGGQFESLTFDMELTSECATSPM
T3 sequence (O60674 whole entry): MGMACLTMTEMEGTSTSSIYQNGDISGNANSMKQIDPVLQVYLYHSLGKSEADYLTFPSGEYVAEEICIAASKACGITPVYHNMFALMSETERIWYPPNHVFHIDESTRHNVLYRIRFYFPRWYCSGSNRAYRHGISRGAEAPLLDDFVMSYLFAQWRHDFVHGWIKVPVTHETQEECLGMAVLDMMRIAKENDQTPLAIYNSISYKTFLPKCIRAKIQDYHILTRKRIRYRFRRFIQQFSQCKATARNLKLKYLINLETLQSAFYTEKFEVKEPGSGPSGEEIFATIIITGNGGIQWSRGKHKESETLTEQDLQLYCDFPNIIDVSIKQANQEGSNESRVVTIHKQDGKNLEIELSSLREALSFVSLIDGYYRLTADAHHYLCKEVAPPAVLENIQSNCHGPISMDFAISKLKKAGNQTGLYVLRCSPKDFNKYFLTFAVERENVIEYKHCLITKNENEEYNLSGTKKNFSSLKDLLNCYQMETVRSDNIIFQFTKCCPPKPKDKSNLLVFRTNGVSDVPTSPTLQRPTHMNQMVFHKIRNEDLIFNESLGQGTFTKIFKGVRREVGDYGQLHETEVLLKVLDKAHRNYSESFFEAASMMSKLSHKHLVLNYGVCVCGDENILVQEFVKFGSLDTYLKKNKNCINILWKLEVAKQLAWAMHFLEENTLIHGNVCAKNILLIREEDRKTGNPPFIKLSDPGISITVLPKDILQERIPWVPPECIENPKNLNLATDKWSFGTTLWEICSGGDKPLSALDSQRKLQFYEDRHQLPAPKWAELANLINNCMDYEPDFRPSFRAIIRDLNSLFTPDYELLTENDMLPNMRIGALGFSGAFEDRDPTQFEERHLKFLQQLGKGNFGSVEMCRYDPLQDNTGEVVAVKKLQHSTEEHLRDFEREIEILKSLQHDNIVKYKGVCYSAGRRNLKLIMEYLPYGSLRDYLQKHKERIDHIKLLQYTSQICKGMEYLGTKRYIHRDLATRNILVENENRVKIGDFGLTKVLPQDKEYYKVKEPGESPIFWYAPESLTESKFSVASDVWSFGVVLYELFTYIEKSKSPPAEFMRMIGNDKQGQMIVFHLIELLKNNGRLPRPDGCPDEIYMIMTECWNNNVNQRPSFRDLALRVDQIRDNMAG
AP2-associated protein kinase 1 (Homo sapiens), sequence (Q2M2I8 whole entry, looked up): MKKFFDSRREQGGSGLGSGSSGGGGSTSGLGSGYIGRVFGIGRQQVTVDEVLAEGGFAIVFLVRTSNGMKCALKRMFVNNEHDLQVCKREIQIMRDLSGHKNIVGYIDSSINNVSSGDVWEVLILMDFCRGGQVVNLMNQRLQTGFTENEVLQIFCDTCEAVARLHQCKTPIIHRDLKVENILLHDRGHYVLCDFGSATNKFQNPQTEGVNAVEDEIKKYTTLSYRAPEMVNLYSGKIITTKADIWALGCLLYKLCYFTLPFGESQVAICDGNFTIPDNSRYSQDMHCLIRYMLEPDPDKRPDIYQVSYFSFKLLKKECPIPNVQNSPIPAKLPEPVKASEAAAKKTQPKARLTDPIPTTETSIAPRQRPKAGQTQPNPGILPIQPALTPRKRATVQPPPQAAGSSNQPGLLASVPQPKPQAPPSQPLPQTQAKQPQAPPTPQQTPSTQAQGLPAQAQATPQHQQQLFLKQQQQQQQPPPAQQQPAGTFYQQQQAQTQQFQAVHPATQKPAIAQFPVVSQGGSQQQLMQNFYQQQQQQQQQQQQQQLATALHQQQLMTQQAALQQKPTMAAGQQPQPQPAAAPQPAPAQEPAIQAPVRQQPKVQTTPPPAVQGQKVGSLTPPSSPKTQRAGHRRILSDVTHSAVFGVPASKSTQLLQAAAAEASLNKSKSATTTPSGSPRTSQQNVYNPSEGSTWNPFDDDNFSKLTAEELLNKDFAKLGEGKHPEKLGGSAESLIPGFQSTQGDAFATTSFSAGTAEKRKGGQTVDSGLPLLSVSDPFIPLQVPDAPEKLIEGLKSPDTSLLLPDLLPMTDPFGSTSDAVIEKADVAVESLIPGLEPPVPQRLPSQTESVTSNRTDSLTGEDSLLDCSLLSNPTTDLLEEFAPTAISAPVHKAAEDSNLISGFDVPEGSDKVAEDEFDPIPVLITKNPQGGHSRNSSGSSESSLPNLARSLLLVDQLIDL
Tyrosine-protein kinase JAK1 (Homo sapiens), sequence (P23458 whole entry): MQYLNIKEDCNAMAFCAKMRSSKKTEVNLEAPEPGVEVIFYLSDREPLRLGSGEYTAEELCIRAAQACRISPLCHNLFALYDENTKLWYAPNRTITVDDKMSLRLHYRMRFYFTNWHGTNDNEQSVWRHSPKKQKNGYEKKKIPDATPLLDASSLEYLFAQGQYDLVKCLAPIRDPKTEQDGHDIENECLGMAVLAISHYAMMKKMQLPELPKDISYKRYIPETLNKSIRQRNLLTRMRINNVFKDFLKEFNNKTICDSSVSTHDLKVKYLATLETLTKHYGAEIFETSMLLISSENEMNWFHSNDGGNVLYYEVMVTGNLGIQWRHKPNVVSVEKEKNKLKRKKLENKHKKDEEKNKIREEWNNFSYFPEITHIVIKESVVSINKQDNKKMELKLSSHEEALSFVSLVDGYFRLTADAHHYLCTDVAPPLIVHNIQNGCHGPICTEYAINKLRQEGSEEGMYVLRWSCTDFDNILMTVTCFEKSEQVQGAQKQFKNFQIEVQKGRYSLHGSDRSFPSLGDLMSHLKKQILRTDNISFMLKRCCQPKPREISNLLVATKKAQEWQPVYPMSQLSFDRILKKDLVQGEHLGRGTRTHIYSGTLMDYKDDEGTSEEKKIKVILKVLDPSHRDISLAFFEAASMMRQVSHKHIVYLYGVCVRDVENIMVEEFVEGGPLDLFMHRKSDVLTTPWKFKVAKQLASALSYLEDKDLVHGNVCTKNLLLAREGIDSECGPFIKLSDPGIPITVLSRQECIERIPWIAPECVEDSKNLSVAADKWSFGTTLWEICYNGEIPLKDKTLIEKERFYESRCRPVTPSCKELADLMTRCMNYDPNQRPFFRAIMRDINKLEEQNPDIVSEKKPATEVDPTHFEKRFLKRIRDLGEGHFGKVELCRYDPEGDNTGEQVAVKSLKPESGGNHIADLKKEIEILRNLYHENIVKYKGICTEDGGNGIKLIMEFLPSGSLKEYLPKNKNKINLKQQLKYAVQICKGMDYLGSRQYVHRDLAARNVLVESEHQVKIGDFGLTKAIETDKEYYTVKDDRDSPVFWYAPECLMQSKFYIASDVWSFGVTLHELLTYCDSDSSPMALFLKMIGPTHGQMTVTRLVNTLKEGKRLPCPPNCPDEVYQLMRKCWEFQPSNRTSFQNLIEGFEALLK
Leukocyte tyrosine kinase receptor, sequence (P29376 whole entry): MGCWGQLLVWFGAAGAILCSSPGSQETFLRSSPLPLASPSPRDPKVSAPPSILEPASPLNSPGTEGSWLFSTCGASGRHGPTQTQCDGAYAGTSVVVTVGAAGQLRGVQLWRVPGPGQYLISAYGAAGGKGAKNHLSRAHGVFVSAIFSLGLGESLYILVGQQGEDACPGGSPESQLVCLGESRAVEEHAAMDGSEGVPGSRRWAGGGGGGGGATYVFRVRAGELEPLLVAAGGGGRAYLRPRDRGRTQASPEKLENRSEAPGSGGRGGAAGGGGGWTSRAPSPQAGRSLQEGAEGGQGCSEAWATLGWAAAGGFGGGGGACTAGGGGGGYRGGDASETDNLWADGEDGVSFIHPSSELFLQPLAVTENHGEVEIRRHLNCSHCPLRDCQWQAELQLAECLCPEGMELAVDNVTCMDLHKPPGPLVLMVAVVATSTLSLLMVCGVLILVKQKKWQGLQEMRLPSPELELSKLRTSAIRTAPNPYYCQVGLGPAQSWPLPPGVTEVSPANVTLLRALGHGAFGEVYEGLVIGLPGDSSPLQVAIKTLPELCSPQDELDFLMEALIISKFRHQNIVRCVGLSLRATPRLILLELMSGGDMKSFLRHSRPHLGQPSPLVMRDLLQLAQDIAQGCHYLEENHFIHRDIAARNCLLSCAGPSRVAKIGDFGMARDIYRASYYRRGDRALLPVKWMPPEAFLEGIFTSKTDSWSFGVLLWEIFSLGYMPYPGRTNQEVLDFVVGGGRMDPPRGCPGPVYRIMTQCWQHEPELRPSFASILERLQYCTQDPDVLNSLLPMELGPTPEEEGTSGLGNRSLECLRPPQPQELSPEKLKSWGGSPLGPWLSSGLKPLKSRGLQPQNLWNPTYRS

Consider `NS(=O)(=O)OCCn1cnc2c(Nc3ccc(F)cc3)nc(NCc3ccc(C4CCCCC4)cc3)nc21`, for which the Activity in experiment [1] is 7.57%; in experiment [5], 19.5%; in [9] it was 38.8%; in experiment [13], 74.4%; in experiment [22], 23.2%; in [23], 17.6%. Besides, the Activity in experiment [28] stood at 16%; in experiment [30], 22.7%. Moreover, the IC50 in experiment [2] was 10.6 µM; in experiment [16] it was 10.5 µM; in experiment [27], 16.6 µM. Moreover, the “growth inhibition (GI)” value in experiment [3] and in experiment [12] was “Active” in each case. The inhibition entry in experiment [4], in [15] and in experiment [20] was “inactive” throughout. Besides, the inhibition was 52% in experiment [6], 85% in [18], 50% in experiment [19] and 50% in experiment [21]. Moreover, in experiment [7], the “growth inhibition (GI)” value was “inactive”. In addition, the viability at 12.5 µM was found to be 36.4% in experiment [8] and 1.98% in [14]. The results for the viability at 7.5 µM in experiment [10] and in experiment [29] were 64.5% and 53.8%, respectively. Besides, the EC50 in experiment [11] worked out at 19.9 µM. The outcome in [17], in [25] and in [26] was Active. Also, the inhibition entry in experiment [24] is “Active”.

With `N[C@@H](Cc1ccc(N(CCCl)CCCl)cc1)C(=O)O` [MELPHALAN], the viability at 15 µM worked out at 54.5% in experiment [31] and 30.8% in [34]. Moreover, the Activity is listed as 34% in experiment [32], 19.3% in experiment [33], 23.7% in [35] and 34.8% in experiment [36].
